From patent publication US20240293339A1, “COMPOUNDS, COMPOSITIONS AND METHODS FOR THE PREVENTION AND/OR TREATMENT OF VARIOUS MITOCHONDRIAL DISEASES OR DISORDERS, INCLUDING FRIEDREICH'S ATAXIA” (Stealth Bio Therapeutics Inc., priority 2021, published 2024)
Entries after “also recorded” stand apart in the source; their conditions may differ.

Tests used:
[1] = test system: frataxin deficient fibroblasts (Friedreich's ataxia patient fibroblast cell line GM03665); assay: Frataxin deficient fibroblast viability assay (the BSO Assay); assay type: cell-based, human; conditions: for EC50: Homo sapiens, Fibroblast, FA patient fibroblasts pretreated with drug 250 nM down to 6.125 nM the day before BSO 10 mM, MTT 48 hrs later; for BSO assay activity compared with vatiquinone (in words) / protection against ferroptosis (in words): summary of Table 1 BSO assay data
Description: Example 6: Frataxin Deficient Fibroblast Viability Assay (the “BSO Assay”)
This Example was used to evaluate the various new compositions for their potential efficacy in the treatment of Friedreich's Ataxia (FA or FRDA) based on their potential to inhibit ferroptosis based on this BSO assay—performed substantially as described in the above cited Reference (Matthias et al.).
The stock solutions of the test articles (and control compounds) were prepared in dimethyl sulfoxide (DMSO at 10 mM). Working stock solutions (2 times concentrated) were prepared on the day of the experiment in respective cell culture medium to be used for assay (detailed medium description below). A listing of compounds used as test articles in this Example 12 are found in Table 1, below.
A patient derived frataxin deficient fibroblast cell line was obtained from Coriell Institute. More specifically, the following cell lines/DNA samples were obtained from the NIGMS Human Genetic Cell Repository at the Coriell Institute for Medical Research: GM03665. To evaluate importance of various growth conditions on cell susceptibility to BSO toxicity cells were grown on:
MEM (Sigma-Aldrich) 15% Fetal Bovine Serum (FBS) without growth factors;
MEM (Sigma-Aldrich) 15% FBS with growth factors (Catalogue number 100-18B, Recombinant Human FGF-basic (154 a.a.) and catalogue number AF-100-15, Animal-Free Recombinant Human EGF from Peprotech);
MEM199/MEM EBS (Bioconcept Ltd.) 10% FBS, insulin 10 μg/ml, L-glutamine 2 mM with growth factors (Catalogue number 100-18B, Recombinant Human FGF-basic (154 a.a.) and catalogue number AF-100-15, Animal-Free Recombinant Human EGF from Peprotech).
To conduct an experiment, fibroblast cells (from all growth conditions) were seeded (100 μL (cells 3×10∧3/well) on 96-well plates in MEM199/MEM EBS medium 10% FBS, insulin 10 μg/mL, L-glutamine 2 mM with growth factors and allowed to grow on plate for 24 hrs. After 24 hrs., media was removed and then test compounds of interest were added (100 μL, 2 times concentrated stock) to 96-well plates (end DMSO concentration not exceeding 0.5%) and incubated for 24 hours. Then L-buthionine-sulfoximine (BSO, from Acros Organics, Cat. No. 235520010) was added (100 μL, 2 times concentrated stock) at end concentrations ranging from 1 to 10 mM. Both test compounds and BSO were dissolved in MEM199/MEM EBS medium 10% FBS, insulin 10 μg/mL, L-glutamine 2 mM with growth factors. Cell viability was monitored and either after 24- or 48-hours cell viability was assayed by MTT (Thiazolyl blue tetrazolium bromide) assay. For the MTT assay, media was removed and 100 μL of MTT 1 mg/mL was added, incubated for 2 hours at +37° C., then medium was removed and 100 μL of isopropanol added to dissolve sediment. Absorption was measured at 570 (OD570) and 650 (OD650) nm wavelengths. Control cells (vehicle instead of BSO and compound) and vehicle control (with BSO, but vehicle instead of test compound) were treated in the same manner as cells with BSO and compound. All cell media contained penicillin and streptomycin 100 U/mL each.
Absorption readouts were processed as follows: ValueΔ=ValueOD570-ValueOD650 and the obtained values were used to calculate cell viability as % of control cell (i.e., no BSO, no compound, just vehicle) viability.
Except as otherwise indicated in Table 1, all samples were run in at least 3 replicates for test compounds and at least 8 replicates for controls (i.e., both control (no BSO, no compound) and vehicle control (i.e., with BSO, no compound). Exact N per data points are indicated in the figures/table legends. Results for the compounds (test articles and controls) tested are listed in Table 1, below.
This is a cell-based assay measuring cytotoxicity which results from oxidative stress subsequent to depletion of endogenous glutathione defense mechanisms. […]

[2] = Concentration of therapeutic agents in blood and brain tissue in rat following oral administration; assay type: in vivo; conditions: male SD rats; for Brain level: perfused brain homogenate; for drop in plasma concentration relative to the next larger compound pair: 2-1/3-1 vs vatiquinone/1-1, 4-1/5-1 vs 2-1/3-1; for brain level (in words): summary of Table 1 brain concentration data; for Cmax: male, Sprague-Dawley, rat, plasma, po, 10 mg/kg
Description: Example 7: Study of Concentration of Therapeutic Agents in Blood and Brain Tissue in Rat Following Oral Administration
This study was intended to examine and compare the concentration of the various therapeutic agents tested in blood and brain tissue shortly after oral administration to rats.
The experimental procedures were carried out in accordance with the guidelines of the European Community and local laws and policies and were approved by the Latvian Animal Protection Ethical Committee, Food and Veterinary Service, Riga, Latvia. Animals were housed in the animal facilities at the Latvian Institute of Organic Synthesis (LIOS) under standard conditions (21-23° C., 12 h light-dark cycle) with unlimited access to food (R70 diet, Lantmännen Lantbruk, Sweden) and water. Male Sprague Dawley (SD) rats (8 weeks old at the time of purchase, from Envigo) were used for the study and were allowed an acclimatization period of at least 1 week prior to treatment. No drugs or vaccines were administered before the start of the study. Only healthy animals were included in the study. Animals were weighed on the day of treatment (before treatment) to calculate the required volume of working solution of compound (i.e. therapeutic agent) administered. No drugs except the therapeutic agent to be tested were administered during the study. Rats were dosed orally with compound (1 times weight μL, solution 10 mg/mL, dissolved in sesame oil).
Animals were anaesthetized using 5% isoflurane inhalation at selected time points after administration of test compounds. Then chest was opened and blood drawn from the heart and collected in EDTA coated microtubes (Sarstedt). Transcardial perfusion was performed afterwards by perfusing ice-cold PBS solution for 4 minutes, ˜55 mL total perfusion volume. Afterwards brain tissues were collected in microtubes and frozen in liquid nitrogen. Blood was centrifuged for 3 min at 10000 g within 15 minutes of collection. Plasma was collected in low-binding microtubes (Nerbe plus) by adding 95 μL of plasma to 5 μL of 2% HCOOH to obtain 100 μL of plasma solution with HCOOH end concentration 0.1%. Plasma was frozen in liquid nitrogen and stored at −80° C.
Tissue samples were weighed in 2 mL micro centrifuge tubes. Microtubes were kept on ice throughout the procedure. Tissue homogenates were prepared using acidified (0.1% HCOOH) water by adding 4 times volume to weighed samples. Two metal beads were placed in each micro centrifuge tube and brain tissues homogenized using Bead Ruptor (Omni International, USA) for 60 s using speed 4 ms per cycle. Homogenates (96 uL) were transferred to 1.5 mL low binding micro centrifuge tubes. Homogenates were frozen and kept at −80° C. until sample extraction for LC/MS/MS analysis.
Extraction of spiked SD Rat EDTA plasma or brain homogenate standards was performed by adding to 100 μL of spiked rat plasma or brain homogenate standard sample of 400 μL of deproteinization solution, 1% formic acid in MeOH with IS (reserpine 15 ng/mL). Samples were vortex mixed for 10 sec at 2800 rpm and incubated on orbital shaker for 10 min at 200 rpm. Then vortex mixed for 10 sec at 2800 rpm and centrifugated at 12000 rpm for 30 min in 5° C. Supernatants were transferred to LC vials and used for analysis. Extraction of rat EDTA plasma or brain homogenate analytical samples was performed by adding to 96 μL of rat plasma or brain homogenate analytical sample of 4 μL of DMSO, vortex mix the samples. Then 400 μL of deproteinization solution, 1% formic acid in MeOH with IS (reserpine 15 ng/mL) were added. Samples were vortex mixed for 10 sec at 2800 rpm and incubated on orbital shaker for 10 min at 200 rpm. Then vortex mixed for 10 sec at 2800 rpm and centrifugated at 12000 rpm for 30 min in 5° C. Supernatants were transferred to LC vials and used for analysis.
Data collected for each of the various therapeutic agents tested (i.e. vatiquinone and Compounds 1-1, 2-1, 3-1, 4-1 and 5-1 are summarized in Table 1, below.

[3] = 10 mg/mL solution in sesame oil, LC/MS/MS
[4] = 10 mg/mL solution in sesame oil, EDTA plasma, LC/MS/MS

Structure (SMILES) | EC50 [1] | BSO assay activity compared with vatiquinone (in words) [1] | protection against ferroptosis (in words) [1] | Brain level [2, 3] | drop in plasma concentration relative to the next larger compound pair [2] | brain level (in words) [2] | Cmax [2, 4] | Plasma Cmax [2, 4]
CC(C)=CCC/C(C)=C/CC[C@](C)(O)CCC1=C(C)C(=O)C(C)=C(C)C1=O [Compound 3-1, (S,E)-2-(3-hydroxy-3,7,11-trimethyldodeca-6,10-dien-1-yl)-3,5,6-trimethylcyclohexa-2,5-diene-1,4-dione] | 41.2 nM | as good as vatiquinone | protective against ferroptosis | 22.0 ng/g | ~5 fold | comparable to those observed with vatiquinone | ~100 ng/mL | 
CC(C)=CCC/C(C)=C/CC/C(C)=C/CC[C@](C)(O)CCC1=C(C)C(=O)C(C)=C(C)C1=O [Compound 1-1, 2-[(3S,6E,10E)-3-hydroxy-3,7,11,15-tetramethyl-6,10,14-hexadecatrien-1-yl]-3,5,6-trimethyl-2,5-cyclohexadiene-1,4-dione] | 16.6 nM | at least equivalent to that of vatiquinone; also recorded: as good as vatiquinone | protective against ferroptosis | 8.3 ng/g |  |  | ~500 ng/mL | 
CC(C)=CCC/C(C)=C/CC/C(C)=C/CC[C@@](C)(O)CCC1=C(C)C(=O)C(C)=C(C)C1=O [vatiquinone, 2-[(3R,6E, 10E)-3-Hydroxy-3,7,11,15-tetramethyl-6,10,14-hexadecatrien-1-yl]-3,5,6-trimethyl-2,5-cyclohexadiene-1,4-dione, reference compound] | 40.7 nM |  | protective against ferroptosis | 20.8 ng/g |  |  | ~500 ng/mL | 457 ng/mL
CC(C)=CCC/C(C)=C/CC[C@@](C)(O)CCC1=C(C)C(=O)C(C)=C(C)C1=O [Compound 2-1, (R,E)-2-(3-hydroxy-3,7,11-trimethyldodeca-6,10-dien-1-yl)-3,5,6-trimethylcyclohexa-2,5-diene-1,4-dione] | 141 nM | not quite as effective as vatiquinone | protective against ferroptosis | 24.5 ng/g | ~5 fold | comparable to those observed with vatiquinone | ~100 ng/mL | 
CC(C)=CCC[C@@](C)(O)CCC1=C(C)C(=O)C(C)=C(C)C1=O [Compound 4-1, (R)-2-(3-hydroxy-3,7-dimethyloct-6-en-1-yl)-3,5,6-trimethylcyclohexa-2,5-diene-1,4-dione] | 90.5 nM | not quite as effective as vatiquinone | protective against ferroptosis | 0 ng/g | ~20 fold | no concentration of these compounds detected | 5.5 ng/mL | 
CC(C)=CCC[C@](C)(O)CCC1=C(C)C(=O)C(C)=C(C)C1=O [Compound 5-1, (S)-2-(3-hydroxy-3,7-dimethyloct-6-en-1-yl)-3,5,6-trimethylcyclohexa-2,5-diene-1,4-dione] | 39 nM | as good as vatiquinone | protective against ferroptosis | 0 ng/g | ~20 fold | no concentration of these compounds detected | 3.2 ng/mL | 
